The IC50 is the concentration that gives 50% inhibition. Lower therefore signals inhibition by little substance.

Consider ten compounds from ChEMBL document CHEMBL1240342, “Molecular modeling studies of vascular endothelial growth factor receptor tyrosine kinase inhibitors using QSAR and docking” (J Mol Graph Model, 2009).

The assay deals with Vascular endothelial growth factor receptor 2 (Homo sapiens, UniProt P35968). Description: Inhibition of human VEGFR2 after 60 mins.
Chain of Vascular endothelial growth factor receptor 2 (P35968 whole entry): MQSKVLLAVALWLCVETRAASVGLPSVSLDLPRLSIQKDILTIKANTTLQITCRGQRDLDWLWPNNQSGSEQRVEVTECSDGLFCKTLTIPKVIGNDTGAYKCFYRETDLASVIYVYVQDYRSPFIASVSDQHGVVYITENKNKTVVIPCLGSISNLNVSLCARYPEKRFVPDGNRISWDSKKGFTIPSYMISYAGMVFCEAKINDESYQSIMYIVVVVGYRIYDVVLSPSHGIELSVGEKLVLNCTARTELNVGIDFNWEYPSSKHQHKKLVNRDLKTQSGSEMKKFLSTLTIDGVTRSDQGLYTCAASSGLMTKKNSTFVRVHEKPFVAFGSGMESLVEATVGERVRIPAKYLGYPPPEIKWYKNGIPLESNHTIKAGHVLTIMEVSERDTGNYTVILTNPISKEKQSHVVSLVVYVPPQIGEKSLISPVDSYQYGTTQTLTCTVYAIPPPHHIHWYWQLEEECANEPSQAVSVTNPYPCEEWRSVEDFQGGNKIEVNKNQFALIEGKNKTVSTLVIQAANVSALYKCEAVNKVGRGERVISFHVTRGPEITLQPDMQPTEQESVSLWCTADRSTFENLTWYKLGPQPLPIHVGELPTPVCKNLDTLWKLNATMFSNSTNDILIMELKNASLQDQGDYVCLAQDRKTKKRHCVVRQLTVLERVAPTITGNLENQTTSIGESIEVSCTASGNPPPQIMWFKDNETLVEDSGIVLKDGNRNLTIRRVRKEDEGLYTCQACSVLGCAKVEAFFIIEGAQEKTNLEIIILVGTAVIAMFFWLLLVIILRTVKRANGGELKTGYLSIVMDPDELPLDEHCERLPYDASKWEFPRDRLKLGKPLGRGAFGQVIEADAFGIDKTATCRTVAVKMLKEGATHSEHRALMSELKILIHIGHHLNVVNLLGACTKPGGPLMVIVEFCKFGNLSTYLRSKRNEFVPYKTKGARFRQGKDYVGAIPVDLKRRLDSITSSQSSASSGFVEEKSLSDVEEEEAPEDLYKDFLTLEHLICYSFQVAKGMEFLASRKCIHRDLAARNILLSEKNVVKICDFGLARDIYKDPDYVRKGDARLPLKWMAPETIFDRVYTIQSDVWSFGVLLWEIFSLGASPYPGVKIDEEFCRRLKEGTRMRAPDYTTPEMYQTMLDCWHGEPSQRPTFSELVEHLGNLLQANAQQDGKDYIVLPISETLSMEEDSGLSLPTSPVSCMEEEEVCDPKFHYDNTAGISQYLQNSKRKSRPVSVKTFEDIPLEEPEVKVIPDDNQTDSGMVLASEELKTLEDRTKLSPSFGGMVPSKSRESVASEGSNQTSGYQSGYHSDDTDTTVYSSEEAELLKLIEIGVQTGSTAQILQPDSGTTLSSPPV
`COc1cc2nccc(Oc3ccc4c(C(N)=O)cccc4c3)c2cc1C(C)=O` showed a half-maximal inhibitory concentration (IC50) of 1.2 nM.

`COc1cc2nccc(Oc3ccc4c(C(=O)NC5CC5)cccc4c3)c2cc1C(C)=O` showed an IC50 of 0.372 nM.

Compound `COCCNC(=O)c1cccc2cc(Oc3ccnc4cc(OC)c(C(C)=O)cc34)ccc12` gave an IC50 of 21.9 nM.

For `COc1cc2nccc(Oc3ccc4c(C(=O)Nc5ccc(Cl)cc5)cccc4c3)c2cc1C(C)=O`, the IC50 was 0.2 nM.

The compound `COc1cc2nccc(Oc3ccc4c(c3)OCCN4C(=O)Nc3ccc(Cl)cc3)c2cc1C(C)=O` showed an IC50 of 0.603 nM.

`COc1cc2nccc(Oc3ccc4c(c3)OCCN4C(=O)Nc3ccc(C)cc3)c2cc1C(C)=O` gave an IC50 of 0.501 nM.

For the compound `COc1cc2nccc(Oc3ccc4c(C(=O)NCC(F)F)cccc4c3)c2cc1OC`, the 50% inhibitory concentration (IC50) was 3.8 nM.

In turn, `COc1cc2nccc(Oc3ccc4c(C(=O)NC5CCC5)cccc4c3)c2cc1OC` gave an IC50 of 2.14 nM.

Compound `COc1cc2nccc(Oc3ccc4c(C(=O)NC(C)C)cccc4c3)c2cc1OC` showed an IC50 of 5.5 nM.

In the case of `COc1cc2nccc(Oc3ccc4c(C(=O)NC5CCCC5)cccc4c3)c2cc1OC`, the IC50 is 12 nM.
